Source: PubChem BioAssay (NCI)
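Results reflect a 48-hour exposure of cells in 96-well plates to compound at five concentrations. GI50 is the concentration that inhibits growth by half. At the TGI there is no net growth.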 *1 amine or outer side, *2 acyl side, *3 side chain or, on linkers, in order; H or OH if unused. Where a SMILES comes first, the peptide text is derived from it. Bridges are numbered along the chain shown (N, C = ends). [ ]: non-standard residue; d: D form. The star is where a group is joined. X34 = O=C(C(CCCCNO[*:3])N[*:1])[*:2]; Fmoc = O=C(OCC1c2ccccc2-c2ccccc21)*

Legend:
Experiment in all cases: NCI anticancer screen, dose series, 48 h
786-0 renal = test system: 786-0 renal
A498 renal = test system: A498 renal
DU-145 prostate = test system: DU-145 prostate
EKVX NSCLC = test system: EKVX NSCLC
HCC-2998 colon = test system: HCC-2998 colon
HCT-116 colon = test system: HCT-116 colon
HOP-92 NSCLC = test system: HOP-92 NSCLC
HS 578T breast = test system: HS 578T breast
MDA-N = test system: MDA-N
NCI-H226 lung = test system: NCI-H226 lung
NCI-H460 lung = test system: NCI-H460 lung
OVCAR-8 ovarian = test system: OVCAR-8 ovarian
SN12C renal = test system: SN12C renal
UACC-257 melanoma = test system: UACC-257 melanoma
KM12 colon = test system: KM12 colon
OVCAR-3 ovarian = test system: OVCAR-3 ovarian
BT-549 breast = test system: BT-549 breast

SMILES	TGI (786-0 renal)	TGI (A498 renal)	TGI (DU-145 prostate)	TGI (EKVX NSCLC)	TGI (HCC-2998 colon)	TGI (HCT-116 colon)	TGI (HOP-92 NSCLC)	TGI (HS 578T breast)	TGI (MDA-N)	TGI (NCI-H226 lung)	TGI (NCI-H460 lung)	TGI (OVCAR-8 ovarian)	TGI (SN12C renal)	TGI (UACC-257 melanoma)	TGI (KM12 colon)	TGI (OVCAR-3 ovarian)	TGI (BT-549 breast)	GI50 (HCT-116 colon)	GI50 (NCI-H226 lung)	GI50 (OVCAR-3 ovarian)
O=S1(=O)OCCOS(=O)(=O)C1Cc1cccc2ccccc12	54.8 µM	28.9 µM	31.1 µM	80.3 µM	43 µM	48.3 µM	56.6 µM	84.9 µM	59.3 µM	36.3 µM	35.4 µM	34.7 µM	62.2 µM	34.2 µM						
O=C1c2c(ccc3c2CCC3)CC12Cc1ccccc1C2	91.5 µM	96.2 µM	> 100 µM	> 100 µM	89 µM	19.6 µM	41 µM	> 100 µM	90.5 µM	62.8 µM	96.1 µM	> 100 µM	> 100 µM	57.4 µM	51.4 µM	82.2 µM				
CCN(CC)Cc1ccc(C(=S)Nc2ccc(C)cc2)s1	29.1 µM	27.2 µM	56.7 µM	35.2 µM	25.6 µM	28.7 µM		16.7 µM			30.8 µM	35.3 µM		24.1 µM	31 µM	70.9 µM	40.2 µM			
NC(=O)CNC(=O)C1CCCN1C(=O)C1CCCCNOC(=O)CCC(NC(=O)OCC2c3ccccc3-c3ccccc32)C(=O)NC(Cc2c[nH]c3ccccc23)C(=O)N1 (stereo not given) (Fmoc-EW[X34]PG-NH2; ester 1-3; configuration not given here)	> 100 µM		> 100 µM	> 100 µM	> 100 µM	> 100 µM	> 100 µM	> 100 µM		> 100 µM	> 100 µM	> 100 µM	> 100 µM	> 100 µM	> 100 µM	> 100 µM	> 100 µM			
COC(=O)C(Br)C1CCc2ccccc21 (stereo not given)	> 100 µM	> 100 µM			> 100 µM	> 100 µM	> 100 µM			> 100 µM	> 100 µM	> 100 µM	> 100 µM	> 100 µM		> 100 µM				
C/C=C1\CN2CCc3c([nH]c4ccccc34)C2C=C1CCO (stereo not given)	> 340 µM			> 340 µM	> 340 µM	> 340 µM	> 340 µM			> 340 µM	> 340 µM	> 340 µM	> 340 µM	> 340 µM	> 340 µM	> 340 µM				
CN(C)c1snc2c1c(=O)n(C)c(=O)n2C	> 100 µM	> 100 µM		> 100 µM	> 100 µM	> 100 µM				> 100 µM	> 100 µM	> 100 µM	> 100 µM	> 100 µM		> 100 µM				
CC(NC(=O)c1ccc(NP(=O)(OCc2ccc([N+](=O)[O-])o2)N(C)CCCCCl)cc1)c1ccc(OCC2CCCCC2)c(C(N)=O)c1 (stereo not given)	45.9 µM	49.2 µM	> 100 µM		24.2 µM	31.6 µM	20.6 µM	42.9 µM	62.4 µM	45.1 µM	72.3 µM	> 100 µM	47.5 µM	26.6 µM	32 µM	33.9 µM				
O=C1c2ccccc2C(=O)C1C(c1ccc(F)cc1)C1C(=O)c2ccccc2C1=O	> 100 µM			> 100 µM	> 100 µM	> 100 µM	> 100 µM			> 100 µM	> 100 µM	> 100 µM	> 100 µM	> 100 µM	> 100 µM	> 100 µM				
CC(C)(C)OC(=O)NCCNCCNc1ccccc1	> 100 µM		> 100 µM	> 100 µM	> 100 µM	> 100 µM	> 100 µM		> 100 µM	> 100 µM	> 100 µM	> 100 µM	> 100 µM	> 100 µM	> 100 µM	> 100 µM	> 100 µM			
CN(C)CCNC(=O)Cn1cnc2cccc([N+](=O)[O-])c2c1=O	> 100 µM	> 100 µM	> 100 µM	> 100 µM	> 100 µM	> 100 µM		> 100 µM	> 100 µM	> 100 µM	> 100 µM		> 100 µM	> 100 µM	> 100 µM	> 100 µM				
COC(=O)C(C(=O)C(=O)Nc1cccc([N+](=O)[O-])c1)c1nc2ccc([N+](=O)[O-])cc2[nH]c1=O (stereo not given)	> 100 µM	> 100 µM		> 100 µM	> 100 µM	> 100 µM				> 100 µM	> 100 µM	> 100 µM	> 100 µM	> 100 µM	> 100 µM	> 100 µM				
O=c1cc(-c2ccco2)[nH]c2cc3c(cc12)OCO3	> 100 µM	> 100 µM		> 100 µM	> 100 µM	> 100 µM				> 100 µM	> 100 µM		> 100 µM	> 100 µM		> 100 µM		39.9 µM	24.4 µM	42.9 µM
CCOc1ccccc1-c1nc2c(s1)C(=O)c1ccccc1C2=O	30.5 µM	29.4 µM	36.5 µM	41.2 µM	29.5 µM	29.3 µM	25 µM	62.3 µM	6.5 µM		39.2 µM		> 100 µM	27.3 µM	29.8 µM	8.01 µM				
C#CCN(N=O)C(=O)NCCCCC(NC(C)=O)C(=O)NCc1ccccc1 (stereo not given)	> 100 µM	> 100 µM		> 100 µM	> 100 µM	> 100 µM	> 100 µM			> 100 µM	> 100 µM	> 100 µM	> 100 µM	> 100 µM	> 100 µM	> 100 µM				
O=C1/C(=C/c2ccc(Oc3ccccc3)cc2)N=C(c2ccccc2)N1c1ccc(S(=O)(=O)Nc2nccs2)cc1	> 100 µM	82 µM	> 100 µM	> 100 µM	6.87 µM	35.4 µM	99.7 µM	> 100 µM	15.8 µM	> 100 µM	> 100 µM		> 100 µM	92.5 µM	53.7 µM	> 100 µM				
